The record followed here is ChEMBL document CHEMBL1201862, “PubChem BioAssay data set” (2004).

Holding throughout (test): inhibition of tumour cell growth, NCI panel, 48 h
Test [1] concerns A498.
The test system of test [2] is COLO 205.
For test [3], the system named is HCT-15.
The test system of test [4] is HOP-92.
For test [5], the system named is K562.
Test [6] has as its system KM12.
Test [7] deals with NCI-H226.
Test [8] concerns NCI-H522.
The test system of test [9] is OVCAR-3.
Test [10] has as its system OVCAR-4.
Test [11] concerns OVCAR-8.
Test [12] concerns SK-OV-3.
The subject of test [13] is SN12C.
In test [14] the test system is SNB-75.
Test [15] deals with SW-620.
Test [16] deals with TK-10.
Test [17] deals with CAKI-1.

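A five-concentration, 48-hour dose response in 96-well plates underlies each endpoint, interpolated linearly between surrounding concentrations. The concentration for 50% growth inhibition is given as GI50.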 Activity calls are given as the source filed them. Rule as the data show it: active = GI50 up to about 1.1 µM and inactive = higher. A value given as a limit tells only on which side of the number the result lay.

In the case of `C[n+]1c2ccccc2c(NC(CCC(N)=O)C(=O)O)c2ccccc21` (centres undefined), the GI50 was > 100 µM (inactive) in [1]; > 100 µM (inactive) in [2]; over 100 µM in [3]; > 100 µM (inactive) in test [4]; > 100 µM (inactive) in [5]; 73.5 µM (inactive) in [6]. For the same compound, the GI50 in test [7], in test [8], in [9], in test [10], in test [11] and in test [12] was > 100 µM (inactive) throughout. For the same compound, the GI50 in test [13], in test [14], in test [15] and in test [16] was > 100 µM (inactive) in each case.
`CCOC(=O)Cn1c2ccccc2c(=O)c2cc(C)c(C)c(C#N)c21`: the GI50 in test [2] is > 100 µM (inactive); in [3], over 100 µM; in [4], 21.8 µM (inactive); in [7] it was > 100 µM (inactive); in [9], > 100 µM (inactive); in test [11], 84.3 µM (inactive). Also, the GI50 is 55.5 µM (inactive) in test [12]; > 100 µM (inactive) in test [13]; 23.2 µM (inactive) in test [14]; > 100 µM (inactive) in [15]; > 100 µM (inactive) in test [16].
As for `Cc1cc2c(cc1C)[n+]([O-])c(C(=O)C/C(=N/NC(=O)c1ccccc1O)C(=O)Nc1ccccc1C(C)C)c(C)[n+]2[O-]`, the GI50 in test [1] is > 100 µM (inactive); in test [17], > 100 µM (inactive); in [2] it was > 100 µM (inactive); in test [3] it was over 100 µM; in [5], 31.6 µM (inactive); in [6], > 100 µM (inactive). For the same compound, the GI50 is > 100 µM (inactive) in test [7]; 42.6 µM (inactive) in test [8]; 37.2 µM (inactive) in test [9]; 54.1 µM (inactive) in test [10]; > 100 µM (inactive) in test [11]; > 100 µM (inactive) in [12]. Besides, the GI50 was > 100 µM (inactive) in test [13], 88.5 µM (inactive) in test [14], 97.1 µM (inactive) in test [15] and > 100 µM (inactive) in test [16].
For `COc1ccc(-c2oc3cc(O)c(OC)c(O)c3c(=O)c2OC2OC(CO)C(O)C(O)C2O)cc1` (centres undefined), the GI50 in [2] was > 100 µM (inactive); in test [3], over 100 µM; in [4], > 100 µM (inactive); in test [5], > 100 µM (inactive); in test [6], > 100 µM (inactive); in test [9] it was > 100 µM (inactive). The GI50 in [10] is > 100 µM (inactive); in [11], 91 µM (inactive); in test [12] it was > 100 µM (inactive); in test [13] it was > 100 µM (inactive); in test [14], > 100 µM (inactive); in [15] it was > 100 µM (inactive). Also, in test [16], the GI50 is > 100 µM (inactive).
For the compound `COc1cc(/C=C(\C#N)c2ccccc2)cc(OC)c1`, the GI50 is 51.1 µM (inactive) in [17]; 57.4 µM (inactive) in test [2]; 24 µM in test [3]; 15.2 µM (inactive) in test [5]; 34.8 µM (inactive) in test [6]; 25.8 µM (inactive) in test [7]. Further, the GI50 is 32.4 µM (inactive) in test [8]; > 100 µM (inactive) in [9]; > 100 µM (inactive) in [10]; > 10 µM (inactive) in test [11]; 48.2 µM (inactive) in test [12]; 74.6 µM (inactive) in [13]. The values for the GI50 in [15] and in test [16] were 38.9 µM (inactive) and > 100 µM (inactive), respectively.
As to `CS/C(c1ccccc1)=[N+](/C)[O-]`, the GI50 in test [1] was > 100 µM (inactive); in test [17], > 100 µM (inactive); in test [2], > 43.3 µM (inactive); in [3] it was 18.1 µM; in test [4] it was > 100 µM (inactive); in [5], > 67.9 µM (inactive). Also, the GI50 in test [6], in [8], in [9], in test [10], in test [11] and in test [12] was > 100 µM (inactive) throughout. Further, the GI50 was > 100 µM (inactive) in test [13], > 64.6 µM (inactive) in [14], > 100 µM (inactive) in test [15] and > 100 µM (inactive) in test [16].
Turning to `C/C(CC(=O)Nc1ccc(NC(=O)/C(C)=N/NS(=O)(=O)c2ccc(C)cc2)cc1)=N\NS(=O)(=O)c1ccc(C)cc1`, the GI50 in [1] was > 100 µM (inactive); in test [17] it was > 100 µM (inactive); in [2] it was > 100 µM (inactive); in [3], over 100 µM; in test [4] it was > 100 µM (inactive); in [5], > 100 µM (inactive). Also, the GI50 in [6], in test [7], in [9], in [11], in test [12] and in [13] was > 100 µM (inactive) in each case. Besides, the GI50 in test [14], in [15] and in [16] was > 100 µM (inactive) throughout.
Turning to `Brc1cc2c(cc1Br)CN(c1ccccc1)C2`, the GI50 is > 100 µM (inactive) in test [1]; > 100 µM (inactive) in test [2]; 53.8 µM in [3]; 41.5 µM (inactive) in test [4]; 80 µM (inactive) in test [5]; > 100 µM (inactive) in test [6]. The GI50 in test [7], in test [9], in test [10], in test [11], in test [12] and in [13] was > 100 µM (inactive) throughout. The GI50 in test [14], in test [15] and in test [16] was > 100 µM (inactive) throughout.
As for `CCc1cc2c(O)c(c1)Cc1cc(CC)cc(c1O)Cc1cc(CC)cc(c1O)Cc1cc(CC)cc(c1O)Cc1cc(CC)cc(c1O)Cc1cc(CC)cc(c1O)Cc1cc(CC)cc(c1O)C2`, the GI50 in test [2] is > 100 µM (inactive); in test [3] it was over 100 µM; in test [4], 44 µM (inactive); in test [5] it was > 10 µM (inactive); in [6], > 100 µM (inactive); in [8], > 100 µM (inactive). For the same compound, the GI50 is > 100 µM (inactive) in test [9]; > 100 µM (inactive) in test [10]; > 100 µM (inactive) in test [11]; > 100 µM (inactive) in [13]; 28.6 µM (inactive) in test [14]; > 100 µM (inactive) in test [15]. Moreover, in [16], the GI50 is > 100 µM (inactive).
`O=S1OC(c2ccccc2)(c2ccccc2)C(c2ccccc2)(c2ccccc2)O1`: the GI50 in test [1] was > 100 µM (inactive); in test [2], > 100 µM (inactive); in [3], over 30.3 µM; in [4] it was 7.74 µM (inactive); in test [5], 25.1 µM (inactive); in test [6], 5.43 µM (inactive). For the same compound, the GI50 in test [7] was > 100 µM (inactive); in test [8] it was > 50.1 µM (inactive); in test [9] it was > 100 µM (inactive); in test [10], 45.2 µM (inactive); in [11], > 100 µM (inactive); in [12] it was > 100 µM (inactive). The GI50 in test [13] was > 100 µM (inactive); in test [14] it was > 56.4 µM (inactive); in [15] it was > 100 µM (inactive); in test [16] it was > 100 µM (inactive).
For the compound `CCc1nc2c([nH]1)C(=O)c1ccccc1C2=O`, the GI50 in test [1] was > 100 µM (inactive); in [17], 47.8 µM (inactive); in test [3], 51.3 µM; in test [5], 55 µM (inactive); in test [6], 59.7 µM (inactive); in [7], 34 µM (inactive). Besides, the GI50 in [8] was 33.5 µM (inactive); in test [9], 23 µM (inactive); in [10] it was 58.7 µM (inactive); in test [11], 57.9 µM (inactive); in [12] it was > 100 µM (inactive); in [13], 37.2 µM (inactive). The GI50 is > 100 µM (inactive) in [14], 43.4 µM (inactive) in test [15] and > 100 µM (inactive) in [16].
In the case of `CCCCCCCC(=O)OCC(C[As](=O)(O)O)OC(=O)CCCCCCC` (centres undefined), the GI50 in test [1] was 19.1 µM (inactive); in test [2] it was 14.3 µM (inactive); in [3], 14.9 µM; in test [4], 12.7 µM (inactive); in [5], 20.6 µM (inactive); in [7] it was 22.3 µM (inactive). The GI50 in test [8] was 13.3 µM (inactive); in [10], 19.7 µM (inactive); in test [11] it was 15.8 µM (inactive); in [12] it was 15.7 µM (inactive); in test [13], 14.7 µM (inactive); in [14] it was 15.7 µM (inactive). The GI50 in [15] was 15.6 µM (inactive).
In the case of `Cc1ccc(Nc2cccc3c2C(=O)c2cccc(Nc4ccc(C)cc4S(=O)(=O)O)c2C3=O)c(S(=O)(=O)O)c1`, the GI50 in [1] was > 100 µM (inactive); in [17], > 100 µM (inactive); in test [2], > 100 µM (inactive); in [3], over 100 µM; in [5], > 100 µM (inactive); in test [6] it was > 100 µM (inactive). In addition, the GI50 in test [7], in test [8], in test [9], in [10], in test [11] and in test [12] was > 100 µM (inactive) throughout. For the same compound, the GI50 in [13], in test [14], in [15] and in test [16] was > 100 µM (inactive) throughout.
